Measured values: the NIST ThermoML archive (doi:10.1016/j.tca.2010.03.028)
± gives the expanded uncertainty stated by the source.

Legend:
[1] = xn = mol fraction of the nth substance listed; conditions: 308.15 K, 101 kPa, Liquid; for excess molar volume: Direct dilatometry; for speed of sound: Linear variable-path acoustic interferometer
[2] = excess molar enthalpy (molar enthalpy of mixing); xn = mol fraction of the nth substance listed; conditions: 308.15 K, 101 kPa, Liquid, Calvet calorimetry

**Q.** What does the source list for `C1CCOCC1` [tetrahydropyran] + CCCCCCC?
**A.** excess molar volume ([1]; x1 = 0.0543): 5.7e-08 ± 2e-09 m3/mol; excess molar volume ([1]; x1 = 0.113): 1.11e-07 ± 3e-09 m3/mol; excess molar volume ([1]; x1 = 0.2031): 1.77e-07 ± 3e-09 m3/mol; excess molar volume ([1]; x1 = 0.2613): 2.1e-07 ± 3e-09 m3/mol; excess molar volume ([1]; x1 = 0.2998): 2.28e-07 ± 3e-09 m3/mol; excess molar volume ([1]; x1 = 0.3475): 2.45e-07 ± 3e-09 m3/mol; excess molar volume ([1]; x1 = 0.3991): 2.58e-07 ± 4e-09 m3/mol; excess molar volume ([1]; x1 = 0.4441): 2.65e-07 ± 4e-09 m3/mol; excess molar volume ([1]; x1 = 0.4964): 2.68e-07 ± 4e-09 m3/mol; excess molar volume ([1]; x1 = 0.5601): 2.64e-07 ± 4e-09 m3/mol; excess molar volume ([1]; x1 = 0.6107): 2.55e-07 ± 3e-09 m3/mol; excess molar volume ([1]; x1 = 0.7123): 2.2e-07 ± 3e-09 m3/mol; excess molar volume ([1]; x1 = 0.8011): 1.72e-07 ± 3e-09 m3/mol; excess molar volume ([1]; x1 = 0.8999): 9.8e-08 ± 2e-09 m3/mol; speed of sound ([1]; x1 = 0.0833): 1100 ± 3 m/s; speed of sound ([1]; x1 = 0.1323): 1107 ± 3 m/s; speed of sound ([1]; x1 = 0.1977): 1117 ± 3 m/s; speed of sound ([1]; x1 = 0.2396): 1127 ± 3 m/s; speed of sound ([1]; x1 = 0.3245): 1137 ± 3 m/s; speed of sound ([1]; x1 = 0.3812): 1145 ± 3 m/s; speed of sound ([1]; x1 = 0.4396): 1154 ± 3 m/s; speed of sound ([1]; x1 = 0.5033): 1163 ± 3 m/s; speed of sound ([1]; x1 = 0.5684): 1172 ± 3 m/s; speed of sound ([1]; x1 = 0.6161): 1178 ± 3 m/s; speed of sound ([1]; x1 = 0.688): 1187 ± 3 m/s; speed of sound ([1]; x1 = 0.7646): 1197 ± 3 m/s; speed of sound ([1]; x1 = 0.8223): 1204 ± 3 m/s; speed of sound ([1]; x1 = 0.9044): 1213 ± 3 m/s; excess molar enthalpy ([2]; x1 = 0.0842): 0.0387 ± 0.000908 kcal/mol; excess molar enthalpy ([2]; x1 = 0.1777): 0.0796 ± 0.00174 kcal/mol; excess molar enthalpy ([2]; x1 = 0.2324): 0.101 ± 0.0022 kcal/mol; excess molar enthalpy ([2]; x1 = 0.3339): 0.132 ± 0.00287 kcal/mol; excess molar enthalpy ([2]; x1 = 0.3741): 0.141 ± 0.00311 kcal/mol; excess molar enthalpy ([2]; x1 = 0.4413): 0.15 ± 0.00335 kcal/mol; excess molar enthalpy ([2]; x1 = 0.5008): 0.153 ± 0.00335 kcal/mol; excess molar enthalpy ([2]; x1 = 0.5989): 0.147 ± 0.00311 kcal/mol; excess molar enthalpy ([2]; x1 = 0.6821): 0.13 ± 0.00287 kcal/mol; excess molar enthalpy ([2]; x1 = 0.7124): 0.122 ± 0.00263 kcal/mol; excess molar enthalpy ([2]; x1 = 0.7654): 0.104 ± 0.00227 kcal/mol; excess molar enthalpy ([2]; x1 = 0.8325): 0.0779 ± 0.00172 kcal/mol; excess molar enthalpy ([2]; x1 = 0.8778): 0.0581 ± 0.00129 kcal/mol; excess molar enthalpy ([2]; x1 = 0.9213): 0.0379 ± 0.000884 kcal/mol

**Q.** What does the source list for `C1CCOCC1` [tetrahydropyran] + C1CCCCC1?
**A.** excess molar volume ([1]; x1 = 0.0648): 9.1e-08 ± 2e-09 m3/mol; excess molar volume ([1]; x1 = 0.1372): 1.72e-07 ± 3e-09 m3/mol; excess molar volume ([1]; x1 = 0.1954): 2.24e-07 ± 3e-09 m3/mol; excess molar volume ([1]; x1 = 0.2351): 2.53e-07 ± 3e-09 m3/mol; excess molar volume ([1]; x1 = 0.303): 2.9e-07 ± 4e-09 m3/mol; excess molar volume ([1]; x1 = 0.3575): 3.1e-07 ± 4e-09 m3/mol; excess molar volume ([1]; x1 = 0.4351): 3.23e-07 ± 4e-09 m3/mol; excess molar volume ([1]; x1 = 0.4911): 3.22e-07 ± 4e-09 m3/mol; excess molar volume ([1]; x1 = 0.5412): 3.14e-07 ± 4e-09 m3/mol; excess molar volume ([1]; x1 = 0.6536): 2.76e-07 ± 4e-09 m3/mol; excess molar volume ([1]; x1 = 0.721): 2.4e-07 ± 3e-09 m3/mol; excess molar volume ([1]; x1 = 0.7952): 1.9e-07 ± 3e-09 m3/mol; excess molar volume ([1]; x1 = 0.8827): 1.17e-07 ± 3e-09 m3/mol; excess molar volume ([1]; x1 = 0.9325): 7e-08 ± 2e-09 m3/mol; speed of sound ([1]; x1 = 0.0785): 1209 ± 3 m/s; speed of sound ([1]; x1 = 0.161): 1205 ± 3 m/s; speed of sound ([1]; x1 = 0.1965): 1204 ± 3 m/s; speed of sound ([1]; x1 = 0.2477): 1202 ± 3 m/s; speed of sound ([1]; x1 = 0.3378): 1200 ± 3 m/s; speed of sound ([1]; x1 = 0.3879): 1199 ± 3 m/s; speed of sound ([1]; x1 = 0.433): 1199 ± 3 m/s; speed of sound ([1]; x1 = 0.4712): 1199 ± 3 m/s; speed of sound ([1]; x1 = 0.5344): 1200 ± 3 m/s; speed of sound ([1]; x1 = 0.5988): 1202 ± 3 m/s; speed of sound ([1]; x1 = 0.6421): 1203 ± 3 m/s; speed of sound ([1]; x1 = 0.7533): 1209 ± 3 m/s; speed of sound ([1]; x1 = 0.8066): 1212 ± 3 m/s; excess molar enthalpy ([2]; x1 = 0.0634): 0.0319 ± 0.000765 kcal/mol; excess molar enthalpy ([2]; x1 = 0.1146): 0.0546 ± 0.00122 kcal/mol; excess molar enthalpy ([2]; x1 = 0.2073): 0.088 ± 0.00194 kcal/mol; excess molar enthalpy ([2]; x1 = 0.2734): 0.106 ± 0.00232 kcal/mol; excess molar enthalpy ([2]; x1 = 0.3379): 0.118 ± 0.00263 kcal/mol; excess molar enthalpy ([2]; x1 = 0.3805): 0.123 ± 0.00263 kcal/mol; excess molar enthalpy ([2]; x1 = 0.4339): 0.127 ± 0.00287 kcal/mol; excess molar enthalpy ([2]; x1 = 0.5322): 0.126 ± 0.00263 kcal/mol; excess molar enthalpy ([2]; x1 = 0.6045): 0.118 ± 0.00263 kcal/mol; excess molar enthalpy ([2]; x1 = 0.6848): 0.103 ± 0.00225 kcal/mol; excess molar enthalpy ([2]; x1 = 0.7529): 0.0864 ± 0.00189 kcal/mol; excess molar enthalpy ([2]; x1 = 0.7939): 0.0744 ± 0.00165 kcal/mol; excess molar enthalpy ([2]; x1 = 0.8564): 0.054 ± 0.00122 kcal/mol; excess molar enthalpy ([2]; x1 = 0.8976): 0.0394 ± 0.000908 kcal/mol

**Q.** For `C1CCOCC1` [tetrahydropyran] + CCCCCC, which excess molar volume ([1]; x1 = 0.0328) is on record?
**A.** The excess molar volume was 1.4e-08 ± 2e-09 m3/mol.

**Q.** And the excess molar volume ([1]; x1 = 0.0459)?
**A.** Its excess molar volume is 1.9e-08 ± 2e-09 m3/mol.

**Q.** And the excess molar volume ([1]; x1 = 0.0694)?
**A.** The excess molar volume was 2.7e-08 ± 2e-09 m3/mol.

**Q.** And the excess molar volume ([1]; x1 = 0.0785)?
**A.** The excess molar volume was 3e-08 ± 2e-09 m3/mol.

**Q.** What about the excess molar volume ([1]; x1 = 0.1294) of the same molecule?
**A.** Its excess molar volume is 4.4e-08 ± 2e-09 m3/mol.

**Q.** And the excess molar volume ([1]; x1 = 0.1561)?
**A.** Its excess molar volume is 4.9e-08 ± 2e-09 m3/mol.

**Q.** What about the excess molar volume ([1]; x1 = 0.2753) of the same molecule?
**A.** Its excess molar volume is 6.4e-08 ± 2e-09 m3/mol.

**Q.** What about the excess molar volume ([1]; x1 = 0.3262) of the same molecule?
**A.** The excess molar volume was 6.6e-08 ± 2e-09 m3/mol.

**Q.** What about the excess molar volume ([1]; x1 = 0.4629) of the same molecule?
**A.** The excess molar volume was 6.2e-08 ± 2e-09 m3/mol.

**Q.** What about the excess molar volume ([1]; x1 = 0.515) of the same molecule?
**A.** Its excess molar volume is 5.8e-08 ± 2e-09 m3/mol.

**Q.** And the excess molar volume ([1]; x1 = 0.6692)?
**A.** The excess molar volume was 4.2e-08 ± 2e-09 m3/mol.

**Q.** And the excess molar volume ([1]; x1 = 0.7837)?
**A.** The excess molar volume was 2.8e-08 ± 2e-09 m3/mol.

**Q.** What about the excess molar volume ([1]; x1 = 0.8461) of the same molecule?
**A.** Its excess molar volume is 2e-08 ± 2e-09 m3/mol.

**Q.** What about the excess molar volume ([1]; x1 = 0.9239) of the same molecule?
**A.** Its excess molar volume is 1e-08 ± 2e-09 m3/mol.

**Q.** And the speed of sound ([1]; x1 = 0.0981)?
**A.** Its speed of sound is 1054 ± 3 m/s.

**Q.** What about the speed of sound ([1]; x1 = 0.1578) of the same molecule?
**A.** Its speed of sound is 1067 ± 3 m/s.

**Q.** What about the speed of sound ([1]; x1 = 0.1965) of the same molecule?
**A.** Its speed of sound is 1075 ± 3 m/s.

**Q.** And the speed of sound ([1]; x1 = 0.2955)?
**A.** The speed of sound was 1093 ± 3 m/s.

**Q.** And the speed of sound ([1]; x1 = 0.3313)?
**A.** Its speed of sound is 1099 ± 3 m/s.

**Q.** And the speed of sound ([1]; x1 = 0.3955)?
**A.** The speed of sound was 1110 ± 3 m/s.

**Q.** What about the speed of sound ([1]; x1 = 0.4469) of the same molecule?
**A.** The speed of sound was 1118 ± 3 m/s.

**Q.** And the speed of sound ([1]; x1 = 0.4947)?
**A.** Its speed of sound is 1126 ± 3 m/s.

**Q.** And the speed of sound ([1]; x1 = 0.5211)?
**A.** Its speed of sound is 1130 ± 3 m/s.

**Q.** And the speed of sound ([1]; x1 = 0.5955)?
**A.** The speed of sound was 1143 ± 3 m/s.

**Q.** And the speed of sound ([1]; x1 = 0.6955)?
**A.** The speed of sound was 1161 ± 3 m/s.

**Q.** What about the speed of sound ([1]; x1 = 0.7311) of the same molecule?
**A.** Its speed of sound is 1168 ± 3 m/s.

**Q.** And the speed of sound ([1]; x1 = 0.7965)?
**A.** The speed of sound was 1181 ± 3 m/s.

**Q.** What about the speed of sound ([1]; x1 = 0.8992) of the same molecule?
**A.** The speed of sound was 1203 ± 3 m/s.

**Q.** What about the excess molar enthalpy ([2]; x1 = 0.0581) of the same molecule?
**A.** Its excess molar enthalpy is 0.0246 ± 0.000621 kcal/mol.

**Q.** And the excess molar enthalpy ([2]; x1 = 0.1073)?
**A.** Its excess molar enthalpy is 0.044 ± 0.001 kcal/mol.

**Q.** And the excess molar enthalpy ([2]; x1 = 0.1962)?
**A.** Its excess molar enthalpy is 0.075 ± 0.00165 kcal/mol.

**Q.** And the excess molar enthalpy ([2]; x1 = 0.2274)?
**A.** Its excess molar enthalpy is 0.0844 ± 0.00186 kcal/mol.

**Q.** And the excess molar enthalpy ([2]; x1 = 0.3276)?
**A.** Its excess molar enthalpy is 0.109 ± 0.00239 kcal/mol.

**Q.** What about the excess molar enthalpy ([2]; x1 = 0.3888) of the same molecule?
**A.** The excess molar enthalpy was 0.12 ± 0.00263 kcal/mol.

**Q.** What about the excess molar enthalpy ([2]; x1 = 0.4395) of the same molecule?
**A.** Its excess molar enthalpy is 0.126 ± 0.00263 kcal/mol.

**Q.** And the excess molar enthalpy ([2]; x1 = 0.4968)?
**A.** The excess molar enthalpy was 0.13 ± 0.00287 kcal/mol.

**Q.** What about the excess molar enthalpy ([2]; x1 = 0.522) of the same molecule?
**A.** The excess molar enthalpy was 0.131 ± 0.00287 kcal/mol.

**Q.** What about the excess molar enthalpy ([2]; x1 = 0.5931) of the same molecule?
**A.** The excess molar enthalpy was 0.129 ± 0.00287 kcal/mol.

**Q.** And the excess molar enthalpy ([2]; x1 = 0.6634)?
**A.** The excess molar enthalpy was 0.121 ± 0.00263 kcal/mol.

**Q.** And the excess molar enthalpy ([2]; x1 = 0.7514)?
**A.** The excess molar enthalpy was 0.103 ± 0.00225 kcal/mol.

**Q.** What about the excess molar enthalpy ([2]; x1 = 0.8124) of the same molecule?
**A.** Its excess molar enthalpy is 0.0849 ± 0.00186 kcal/mol.

**Q.** And the excess molar enthalpy ([2]; x1 = 0.8997)?
**A.** The excess molar enthalpy was 0.0509 ± 0.00115 kcal/mol.
